# Experimental data taken from publication PMC10888562 (International Journal of Molecular Sciences, 2024).
# Several values for one entry are separate records, joined by “and”; a condition that tells them apart may be missing. Identical values can stand only once. Like-named read-outs stand apart in the source and are kept apart here.
# Key:
# A431 skin = tested on: A431 skin; design: method as in PMID 36142383, PMID 37173934, PMID 36296713; details: cited from earlier work
# BE2-C neuroblastoma = tested on: BE2-C neuroblastoma; design: method as in PMID 36142383, PMID 37173934, PMID 36296713; details: cited from earlier work
# SJ-G2 glioblastoma = tested on: SJ-G2 glioblastoma; design: method as in PMID 36142383, PMID 37173934, PMID 36296713; details: cited from earlier work
# [1] = tested on: cisplatin-resistant ADDP ovarian variant; design: method as in PMID 36142383, PMID 37173934, PMID 36296713; details: cited from earlier work
# H460 lung = tested on: H460 lung; design: method as in PMID 36142383, PMID 37173934, PMID 36296713; details: cited from earlier work
# HT29 colon cells [2] = experiment: TMRE mitochondrial membrane potential (MtMP) assay; type: cell-based, human; details: GI50 drug concentration (FCCP 20 μM)
# Description: This was achieved by determining if the overproduction of ROS induced by these complexes impacts mitochondrial activity by altering MtMP. Briefly, there is evidence showing a strong correlation between increased levels of ROS and mitochondrial impairment. […] The MtMP changes recorded are measured as RFU. […] To investigate the MtMP changes in HT29 treated cells, a TMRE-MtMP Assay Kit (Abcam, Cambridge, MA, USA) was used, as previously described. In 96-well plates, 25,000 cells/mL of HT29 colon cells in DMEM were seeded. Cells were treated with a GI50 drug concentration for each complex. At 24, 48 or 72 h, cells were washed with PBS and stained with tetramethylrhodamine, ethyl ester (TMRE) (1 μM) and incubated for 30 min. TMRE was then removed, and cells were then re-washed with PBS (0.2% BSA), after which phenol red free media was added. The plates were directly scanned to measure fluorescence (expressed as RFU), using the Glo-Max®-Multimode microplate reader (Promega Corporation, Alexandra, VIC, Australia) at an excitation/emission of 549/575 nm. For the positive control, 20 μM carbonyl cyanide 4-(trifluoromethoxy) phenylhydrazone (FCCP)) was added to the cells and incubated for 10 min. The cells were washed with PBS (0.2% BSA) and stained with TMRE (1 μM) for 30 min; this was removed, and phenol red free media was added, and the final solution was scanned as mentioned above.
# U87 glioblastoma = tested on: U87 glioblastoma; design: method as in PMID 36142383, PMID 37173934, PMID 36296713; details: cited from earlier work
# MCF-7 breast = tested on: MCF-7 breast; design: method as in PMID 36142383, PMID 37173934, PMID 36296713; details: cited from earlier work
# HT29 colon = tested on: HT29 colon; design: method as in PMID 36142383, PMID 37173934, PMID 36296713; details: cited from earlier work
# [3] = tested on: multiple human cell lines; design: method as in PMID 36142383, PMID 37173934, PMID 36296713; details: average over all cell lines; cited from earlier work
# Du145 prostate = tested on: Du145 prostate; design: method as in PMID 36142383, PMID 37173934, PMID 36296713; details: cited from earlier work
# HT29 colon cells [4] = tested on: HT29 colon cells; design: method as in PMID 36142383, PMID 37173934, PMID 36296713; details: cited from earlier work
# A2780 ovarian = tested on: A2780 ovarian; design: method as in PMID 36142383, PMID 37173934, PMID 36296713; details: cited from earlier work
# [5] = tested on: histone deacetylase (HDAC); experiment: Fluorometric HDAC activity assay on extracts of treated HT29 cells; type: cell-based, human; details: HT29 colon cells treated 72 h at GI50 concentration; lower RFU = decline in HDAC activity; HT29 extract control 5154 ± 40
# Description: All values are expressed as RFU.
# To study the HDAC activity in HT29 treated cells, a Fluorometric HDAC Activity Assay Kit ab156064 (Abcam, Cambridge, MA, USA) was used and all sample preparations were made based on the manufacturer’s protocol. A total of 10^6 cells/mL of HT29 cells were seeded in DMEM with serum deprivation for 18 h to synchronise the cells. […] Cells were then washed with cold PBS and resuspended in lysis buffer (10 mM Tris HCl (pH 7.5), 10 mM NaCl, 15 mM MgCl2, 250 mM sucrose, 0.5% NP-40 and 0.1 mM EGTA) and lysed on ice for 20 min. Cells were centrifuged through 4 mL of sucrose cushion (30% sucrose, 10mM Tris HCl (pH 7.5), 10 mM NaCl and 3mM MgCl2) at 1300× g for 10 min at 4 °C. Supernatant was discarded and the pellet was washed and resuspended in extraction buffer (50 mM HEPES-KOH (pH 7.5), 420 mM NaCl, 0.5 mM EDTA 2Na, 0.1 mM EGTA and 10% glycerol) and then sonicated for 30 s. Nuclei were lysed for 30 min on ice and centrifuged at 20,000× g for 30 min. The supernatant was collected, and the samples were prepared for the fluorometric assay according to the manufacturer’s protocol (Histone Deacetylase (HDAC) Activity Assay Fluorometric Kit ab156064, Abcam). The changes in the relative fluorescence intensity (expressed as RFU) were recorded each minute over 60 min using the Glo-Max®-Multimode microplate reader (Promega Corporation, Alexandra, VIC, Australia) at an excitation/emission of 355/460 nm.
# prostate tumour = tested on: prostate tumour; design: method as in PMID 18997969; details: mice with prostate tumour; cited from earlier work
# [6] = tested on: non-tumour-derived MCF10A breast line; design: method as in PMID 36142383, PMID 37173934, PMID 36296713; details: cited from earlier work
# MIA pancreas = tested on: MIA pancreas; design: method as in PMID 36142383, PMID 37173934, PMID 36296713; details: cited from earlier work
# peritoneal carcinoma = tested on: peritoneal carcinoma; design: method as in PMID 20535526; details: BD-IX rats with peritoneal carcinoma; cited from earlier work
Compound,GI50 (A431 skin),GI50 (BE2-C neuroblastoma),GI50 (SJ-G2 glioblastoma),GI50 [1],GI50 (H460 lung),"MtMP Changes (HT29 colon cells [2]; 24 h, control 542 ± 4)","MtMP Changes (HT29 colon cells [2]; 48 h, control 507 ± 11)","MtMP Changes (HT29 colon cells [2]; 72 h, control 449 ± 10)",GI50 (U87 glioblastoma),GI50 (MCF-7 breast),GI50 (HT29 colon),GI50 [3],GI50 (Du145 prostate),ROS Production (HT29 colon cells [4]; 24 h),ROS Production (HT29 colon cells [4]; 48 h),ROS Production (HT29 colon cells [4]; 72 h),GI50 (A2780 ovarian),HDAC Inhibition at 72 h [5],GI50 [6],GI50 (MIA pancreas),also measured
"N[C@H]1CCCC[C@@H]1N.[Pt+2].c1cnc2c(c1)ccc1cccnc12 [PHENSS, [Pt^II(phen)(SS-DACH)]^2+]",480 ± 170 nM,380 ± 46 nM,330 ± 66 nM,190 ± 47 nM,360 ± 35 nM,321 ± 7 RFU,305 ± 5 RFU,257 ± 6 RFU,980 ± 270 nM,1500 ± 500 nM,160 ± 45 nM,434 ± 110 nM,100 ± 38 nM,174 ± 2 RFU,172 ± 9 RFU,176 ± 7 RFU,230 ± 30 nM,3733 ± 37 RFU,300 ± 58 nM,200 ± 57 nM,rate of tumour regression (prostate tumour): comparable to cisplatin; toxicity (prostate tumour): no toxicity was detected
"Cc1c(C)c2cccnc2c2ncccc12.N[C@H]1CCCC[C@@H]1N.[Pt] [56MESS, [Pt^II(5,6-Me2phen)(SS-DACH)]^2+]",29 ± 1 nM,59 ± 4 nM,66 ± 22 nM,13 ± 2 nM,21 ± 2 nM,277 ± 5 RFU,211 ± 7 RFU,151 ± 7 RFU,35 ± 6.4 nM,93 ± 44 nM,10 ± 1.6 nM,36 ± 10 nM,4.6 ± 0.4 nM,240 ± 5 RFU,218 ± 3 RFU,255 ± 4 RFU,76 ± 57 nM,1847 RFU and 1847 ± 42 RFU,16 ± 1 nM,13 ± 2 nM,nephrotoxicity (peritoneal carcinoma): caused nephrotoxicity; tumour suppression (peritoneal carcinoma): ineffective in suppressing tumour
